Legend:
Assay type in all cases: binding
Conditions in all cases: Compound Concentration 10 µM
panel of 442 kinases [1] = biological target: T1, panel of 442 kinases (Homo sapiens, UniProt O95747)
T1 construct: purchased KINOMEscan
Text: (§1) We assessed the selectivity of members of this scaffold using the KINOMEscan methodology across a near comprehensive panel of 442 kinases [[18,27]].

panel of 442 kinases [2] = biological target: T2, panel of 442 kinases (Homo sapiens, UniProt P48729)
T2 construct: purchased KINOMEscan
T2 sequence (P48729 whole entry): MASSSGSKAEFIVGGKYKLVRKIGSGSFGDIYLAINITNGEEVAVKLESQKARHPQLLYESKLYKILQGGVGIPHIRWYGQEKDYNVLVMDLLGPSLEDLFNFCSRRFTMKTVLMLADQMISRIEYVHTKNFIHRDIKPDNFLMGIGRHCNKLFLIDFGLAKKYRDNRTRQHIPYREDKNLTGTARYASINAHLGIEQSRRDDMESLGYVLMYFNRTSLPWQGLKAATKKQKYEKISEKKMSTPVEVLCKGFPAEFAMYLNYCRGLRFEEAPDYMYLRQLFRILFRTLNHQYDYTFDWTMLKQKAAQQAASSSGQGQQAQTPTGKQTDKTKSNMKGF
Text: as §1

panel of 442 kinases [3] = biological target: T3, panel of 442 kinases (Homo sapiens, UniProt O15146)
T3 construct: purchased KINOMEscan
T3 sequence (O15146 24-869): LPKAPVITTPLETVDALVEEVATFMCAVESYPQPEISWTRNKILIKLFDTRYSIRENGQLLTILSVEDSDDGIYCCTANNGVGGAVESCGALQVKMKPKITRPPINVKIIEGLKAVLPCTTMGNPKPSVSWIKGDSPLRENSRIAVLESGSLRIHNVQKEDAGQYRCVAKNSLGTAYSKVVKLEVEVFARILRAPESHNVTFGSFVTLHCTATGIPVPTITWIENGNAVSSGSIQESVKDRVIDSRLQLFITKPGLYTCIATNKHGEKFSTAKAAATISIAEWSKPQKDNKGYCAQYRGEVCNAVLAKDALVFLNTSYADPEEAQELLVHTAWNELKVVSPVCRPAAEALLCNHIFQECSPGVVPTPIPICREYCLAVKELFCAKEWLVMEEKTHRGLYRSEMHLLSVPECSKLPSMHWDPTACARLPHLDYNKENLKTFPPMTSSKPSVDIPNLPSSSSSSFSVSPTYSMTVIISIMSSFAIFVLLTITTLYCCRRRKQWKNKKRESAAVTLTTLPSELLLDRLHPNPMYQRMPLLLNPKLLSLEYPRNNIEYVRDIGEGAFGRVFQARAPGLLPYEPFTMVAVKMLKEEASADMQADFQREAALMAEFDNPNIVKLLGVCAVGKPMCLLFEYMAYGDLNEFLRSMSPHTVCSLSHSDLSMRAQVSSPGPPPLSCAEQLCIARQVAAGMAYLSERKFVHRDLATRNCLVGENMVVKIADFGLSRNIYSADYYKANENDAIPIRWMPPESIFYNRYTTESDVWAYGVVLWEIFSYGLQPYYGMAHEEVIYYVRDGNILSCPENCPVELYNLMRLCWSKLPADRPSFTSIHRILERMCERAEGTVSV
Text: as §1

T1 sequence (O95747 whole entry): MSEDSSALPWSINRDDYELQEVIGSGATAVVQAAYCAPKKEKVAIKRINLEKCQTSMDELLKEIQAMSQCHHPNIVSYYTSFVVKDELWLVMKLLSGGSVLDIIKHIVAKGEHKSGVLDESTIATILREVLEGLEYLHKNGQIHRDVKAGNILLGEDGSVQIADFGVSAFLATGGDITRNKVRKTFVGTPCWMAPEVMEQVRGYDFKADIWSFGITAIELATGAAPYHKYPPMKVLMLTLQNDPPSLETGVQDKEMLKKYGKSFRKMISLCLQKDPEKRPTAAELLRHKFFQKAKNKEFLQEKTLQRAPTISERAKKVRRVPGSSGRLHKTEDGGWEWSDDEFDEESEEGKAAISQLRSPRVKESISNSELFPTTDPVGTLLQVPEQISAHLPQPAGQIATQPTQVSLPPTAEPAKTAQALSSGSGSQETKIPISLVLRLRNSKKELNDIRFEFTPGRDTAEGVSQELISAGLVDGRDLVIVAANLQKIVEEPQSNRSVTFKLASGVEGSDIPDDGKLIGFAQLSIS

## COc1cc(C(=O)N2CCC(N3CCN(C)CC3)CC2)ccc1Nc1ncc2c(n1)N(C1CCCC1)c1ccccc1C(=O)N2C [Compound 25, 11-cyclopentyl-2-((2-methoxy-4-(4-(4-methylpiperazin-1-yl)piperidine-1-carbonyl)phenyl)amino)-5-methyl-5H-benzo[e]pyrimido[5,4-b][1,4]diazepin-6(11H)-one]
Panel of 442 kinases [1]
  KINOMEscan: OSR1: 100
Panel of 442 kinases [2]
  KINOMEscan: CSNK1A1: 100
Panel of 442 kinases [3]
  KINOMEscan: MUSK: 100

## CCOc1cc(C(=O)N2CCC(N3CCN(C)CC3)CC2)ccc1Nc1ncc2c(n1)N(C1CCCC1)c1ccccc1C(=O)N2C [Compound 26]
Panel of 442 kinases [1]
  KINOMEscan: OSR1: 99
Panel of 442 kinases [2]
  KINOMEscan: CSNK1A1: 100
Panel of 442 kinases [3]
  KINOMEscan: MUSK: 100

## COc1cc(C(=O)N2CCC(N3CCN(C)CC3)CC2)ccc1Nc1ncc2c(n1)N1CCc3cccc(c31)C(=O)N2C [Compound 24]
Panel of 442 kinases [1]
  KINOMEscan: OSR1: 100

## COc1cc(C(=O)N2CCC(N3CCN(C)CC3)CC2)ccc1Nc1ncc2c(n1)N(C)c1ccccc1C(=O)N2C [15 (LRRK2-IN-1)]
Panel of 442 kinases [1]
  KINOMEscan: OSR1: 88
Panel of 442 kinases [2]
  KINOMEscan: CSNK1A1: 100
Panel of 442 kinases [3]
  KINOMEscan: MUSK: 99
